Laboratory results published in US20220229065A1, “SENSORS AND METHODS FOR RAPID MICROBIAL DETECTION” (BAMBU VAULT LLC, priority 2019, published 2022).
Each block holds one compound with its values, some of them ahead of it.

What was measured:
[1] = Retention of Epolight 1117 tetrakis aminium dye in particles during emulsification and evaporation; assay type: physicochemical; details: retention in the particles during emulsion and evaporation process; surfactant as labelled
From the text: In the emulsion method of encapsulation, a surfactant is necessary to help keep the emulsion stable. While Aerosol® TR-70 (sodium bis(tridecyl) sulfosuccinate) could be used as an emulsifier to prepare polymer particles encapsulating Epolight™ 1117 tetrakis aminium dye, TR-70 only provided limited stabilization effects on the tetrakis aminium dye. […] Reducing the amount of SDS in the aqueous phase led to lower Epolight™ 1117 retention and larger particle size (Table 2).

chymotrypsin = assay: Reaction of Formula (12) conjugate with chymotrypsin (color change, selectivity control); assay type: biochemical; details: 1.0 mg in 0.3 mL DMSO + 25 μL chymotrypsin
Method: (§1) In four different vials, compound 4 (1.0 mg in each vial) was dissolved in DMSO (0.3 mL). To one vial, 25 μL of β-lactamase blend was added. To another vial 25 μL PBS was added as the negative control. To the other two vials 25 μL of papain and chymotrypsin were added separately.

β-lactamase blend = assay: Reaction of Formula (12) conjugate with β-lactamase (color change in vial); assay type: biochemical
Method: as §1

papain = target: T1, papain (Carica papaya, UniProt P00784); assay: Reaction of Formula (12) conjugate with papain (color change, selectivity control); assay type: biochemical; details: 1.0 mg in 0.3 mL DMSO + 25 μL papain
T1 sequence (P00784 134-345): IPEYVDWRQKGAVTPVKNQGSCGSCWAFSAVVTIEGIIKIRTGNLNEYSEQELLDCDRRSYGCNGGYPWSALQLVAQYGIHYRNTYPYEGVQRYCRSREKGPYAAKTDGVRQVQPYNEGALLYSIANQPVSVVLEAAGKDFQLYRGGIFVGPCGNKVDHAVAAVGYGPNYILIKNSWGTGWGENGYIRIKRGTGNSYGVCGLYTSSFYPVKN
Method: as §1

[2] = Additives that stabilize the dye within the particles; assay type: physicochemical; details: antioxidant additive in polymer matrix
From the text: The loading of dyes within the particles is as high as possible without degrading the cohesion of the polymer. The additives that stabilize the dye within the particles have been studied.

[3] = 1.0 mg in 0.3 mL DMSO + 25 μL β-lactamase blend

- % Epolight ™ 1117 Retention [1]: 50%
SMILES: CCCCCCCCCCCCCOC(=O)CC(C(=O)OCCCCCCCCCCCCC)S(=O)(=O)O.[Na] (centres unmarked) [TR-70, sodium bis(tridecyl) sulfosuccinate]

- color change with PBS (negative control, no enzyme) (β-lactamase blend; 1.0 mg in 0.3 mL DMSO + 25 μL PBS): did not change color at all
- time to very strong color change after β-lactamase addition (β-lactamase blend; [3]): less than 5 minutes
- color change after papain addition (papain): slightly changed color to light brown
SMILES: COc1ccc(COC(=O)C2=C(CSc3ccc4c(c3)Oc3cc(SCC5=C(C(=O)OCc6ccc(OC)cc6)N6C(=O)[C@H](NC(=O)Cc7ccccc7)[C@@H]6SC5)ccc3C43OC(=O)c4ccccc43)CS[C@H]3[C@@H](NC(=O)Cc4ccccc4)C(=O)N23)cc1 [compound 4]
- color change after chymotrypsin addition (chymotrypsin): almost no color change even after 30 minutes
- color change after β-lactamase addition (onset) (β-lactamase blend; [3]): started changing color from light yellow to brownish-red within a minute

- % Epolight ™ 1117 Retention [1]: 85-90%
SMILES: CCCCCCCCCCCCOS(=O)(=O)[O-].[Na+] [Sodium dodecyl sulfate, sodium dodecyl sulfate]

- impact on dye stability within the particles [2]: positive impact
SMILES: Cc1cc(C(C)(C)C)c(O)c(C)c1Cn1c(=O)n(Cc2c(C)cc(C(C)(C)C)c(O)c2C)c(=O)n(Cc2c(C)cc(C(C)(C)C)c(O)c2C)c1=O [Cyanox® 1790, 1,3,5-tris(4-tert-butyl-3-hydroxy-2,6-dimethylbenzyl)-1,3,5-triazine-2,4,6-(1H,3H,5H)-trione]
